Results as given in the OligoGym collection.
Where “and” joins values, the source holds several entries; their conditions need not be identical. Equal entries are not always repeated. After the bases stand the sugars from the 5' end (letter, count) and the backbone: PS all phosphorothioate, else s phosphorothioate and o phosphodiester by linkage. Methylation of C is not given here. e = 2'-O-(2-methoxyethyl) (MOE); l = locked nucleic acid (LNA); k = constrained ethyl (cEt); d = 2'-deoxy (DNA)

Experiments:
[1] = target: SNHG14; settings: ASO, Human Neuronal Cell
[2] = target: SOD1; settings: ASO

AGTTCTACTATACTTTC (sugars l4 d11 l2, PS)
target mRNA inhibition ([1]; 0.2 µM): 50%
target mRNA inhibition ([1]; 1 µM): 57%

ATCTTTCCATTTATTTCCAT (sugars ldddddlddddddlddddll, PS)
target mRNA inhibition ([1]; 7.5 µM): 41%

TTTACATTCCCATCATC (sugars l2 d11 l4, PS)
target mRNA inhibition ([1]; 0.2 µM): 57%
target mRNA inhibition ([1]; 1 µM): 66%

CCTTTAATGCTTCTAAC (sugars l2 d11 l4, PS)
target mRNA inhibition ([1]; 0.2 µM): 35%
target mRNA inhibition ([1]; 1 µM): 53%

CATTTACAAGCACATA (sugars l2 d10 l4, PS)
target mRNA inhibition ([1]; 0.2 µM): 43%
target mRNA inhibition ([1]; 1 µM): 37%

AATTTTTTTCTTACTATCTT (sugars ldlllldddddddlddddll, PS)
target mRNA inhibition ([1]; 7.5 µM): 55%

TTTTTTTCTTACTATCTTCA (sugars ldlddddddddddlddddll, PS)
target mRNA inhibition ([1]; 7.5 µM): 46%

TTTATACCTTTCTTTAACCC (sugars lddddddddddddldlddll, PS)
target mRNA inhibition ([1]; 7.5 µM): 52%

TCAGCTTTTAACCAGAGT (sugars l2 d13 l3, PS)
target mRNA inhibition ([1]; 7.5 µM): 79%

ATATTGATTCAATTCCC (sugars l2 d1 l1 d10 l3, PS)
target mRNA inhibition ([1]; 7.5 µM): 65%

CTCTCCTCAAGATCAAC (sugars l3 d11 l3, PS)
target mRNA inhibition ([1]; 0.2 µM): 23%
target mRNA inhibition ([1]; 1 µM): 42%

TTCTGTATACACCATCCC (sugars ldddlddddddddlddll, PS)
target mRNA inhibition ([1]; 7.5 µM): 54%

ACTGTTTATACCCTTTC (sugars l1 d11 l1 d2 l2, PS)
target mRNA inhibition ([1]; 7.5 µM): 56%

CTGCCATCTTTATTTAT (sugars l4 d11 l2, PS)
target mRNA inhibition ([1]; 0.2 µM): 5%
target mRNA inhibition ([1]; 1 µM): 9%

TTATAGCCATTCTATCT (sugars l1 d10 l2 d2 l2, PS)
target mRNA inhibition ([1]; 7.5 µM): 48%

TATTTATACACCATCAT (sugars l3 d11 l3, PS)
target mRNA inhibition ([1]; 0.2 µM): 59%
target mRNA inhibition ([1]; 1 µM): 63%

CTGTATACACCATCCCA (sugars l1 d11 l2 d1 l2, PS)
target mRNA inhibition ([1]; 7.5 µM): 53%

TACACTTAATTATACTTCCA (sugars lddlddlddddddlddddll, PS)
target mRNA inhibition ([1]; 7.5 µM): 61%

CATTATTATTTAACCTT (sugars l2 d11 l4, PS)
target mRNA inhibition ([1]; 0.2 µM): -2%
target mRNA inhibition ([1]; 1 µM): 14%

CCTAAGCTCCATATTTA (sugars l3 d11 l3, PS)
target mRNA inhibition ([1]; 0.2 µM): 30%
target mRNA inhibition ([1]; 1 µM): 47%

TTGATTCAATTCCCTTA (sugars lldldddddddldldll, PS)
target mRNA inhibition ([1]; 7.5 µM): 59%

ACTCTGCAATACACCAA (sugars l4 d8 l1 d2 l2, PS)
target mRNA inhibition ([1]; 7.5 µM): 57%

TTCCCTTTGATAACAT (sugars l4 d10 l2, PS)
target mRNA inhibition ([1]; 0.2 µM): 9%
target mRNA inhibition ([1]; 1 µM): 34%

TACCTACATCTCATACTT (sugars l2 d14 l2, PS)
target mRNA inhibition ([1]; 0.2 µM): -10%
target mRNA inhibition ([1]; 1 µM): 11%
target mRNA inhibition ([1]; 5 µM): 6%

ATCATTCTCAACAATTA (sugars l5 d7 l1 d1 l3, PS)
target mRNA inhibition ([1]; 7.5 µM): 54%

CTGTATACACCATCCC (sugars l2 d12 l2, PS)
target mRNA inhibition ([1]; 0.2 µM): 62%
target mRNA inhibition ([1]; 1 µM): 62%

ATTTCATATTACTAACTA (sugars l2 d12 l4, PS)
target mRNA inhibition ([1]; 0.2 µM): 3%
target mRNA inhibition ([1]; 1 µM): 20%

TTTTTATACCTTTCTTTAAC (sugars l1 d12 l1 d2 l4, PS)
target mRNA inhibition ([1]; 7.5 µM): 43%

AGCTTTTAACCAGAGTG (sugars l2 d11 l4, PS)
target mRNA inhibition ([1]; 7.5 µM): 78%

TTTTTATACCTTTCTTTAAC (sugars l2 d12 l3 d1 l2, PS)
target mRNA inhibition ([1]; 7.5 µM): 62%

TATACCTTTCTTTAACCCTT (sugars llddldldddddddddddll, PS)
target mRNA inhibition ([1]; 7.5 µM): 60%

ACATTATTAACCACCT (sugars l3 d10 l3, PS)
target mRNA inhibition ([1]; 0.2 µM): 62%
target mRNA inhibition ([1]; 1 µM): 64%

CCCATTTCTAACATTTAC (sugars l3 d12 l3, PS)
target mRNA inhibition ([1]; 0.2 µM): 50%
target mRNA inhibition ([1]; 1 µM): 64%

AATTTTTTTCTTACTATCTT (sugars lldldlddddddddlddlll, PS)
target mRNA inhibition ([1]; 7.5 µM): 43%

TTATTAACCACCTTAA (sugars l3 d10 l3, PS)
target mRNA inhibition ([1]; 0.2 µM): 21%
target mRNA inhibition ([1]; 1 µM): 49%

TTTTTTTCTTACTATCTTCA (sugars l3 d15 l2, PS)
target mRNA inhibition ([1]; 7.5 µM): 28%

ATCTGCTACATATTCT (sugars l4 d10 l2, PS)
target mRNA inhibition ([1]; 0.2 µM): 41%
target mRNA inhibition ([1]; 1 µM): 61%

ACTGTTTATACCCTTTCC (sugars l1 d2 l1 d12 l2, PS)
target mRNA inhibition ([1]; 7.5 µM): 46%

CTCAAAGATCATTCTCA (sugars ldlldddddddlddlll, PS)
target mRNA inhibition ([1]; 7.5 µM): 69%

TTTCCATTTATTTCCATTTA (sugars lddddldddddddlddldll, PS)
target mRNA inhibition ([1]; 7.5 µM): 58%

TACTCTGCAATACACCA (sugars l1 d2 l2 d10 l2, PS)
target mRNA inhibition ([1]; 7.5 µM): 56%

AAATCTCAACTACCATTTTT (sugars ldlddldddddddllddlll, PS)
target mRNA inhibition ([1]; 7.5 µM): 29%

ATTGATTCAATTCCCTT (sugars ldldddddddddldlll, PS)
target mRNA inhibition ([1]; 7.5 µM): 54%

CAAACCTACGTCTCTC (sugars l2 d10 l4, PS)
target mRNA inhibition ([1]; 0.2 µM): 31%
target mRNA inhibition ([1]; 1 µM): 26%

ATTGATTCAATTCCCTT (sugars lddlddddddddldlll, PS)
target mRNA inhibition ([1]; 7.5 µM): 67%

TCTGTATACACCATCCC (sugars l2 d1 l1 d11 l2, PS)
target mRNA inhibition ([1]; 7.5 µM): 56%

ACTGTTTATACCCTTTC (sugars l1 d11 l1 d1 l3, PS)
target mRNA inhibition ([1]; 7.5 µM): 59%

ATCTTTCCATTTATTTCCAT (sugars ldddldldddddddldddll, PS)
target mRNA inhibition ([1]; 7.5 µM): 30%

AGCTTACCAAATATTC (sugars l4 d10 l2, PS)
target mRNA inhibition ([1]; 0.2 µM): 17%
target mRNA inhibition ([1]; 1 µM): 23%

TCTTCCAAGTGATCATA (sugars e2 k2 d9 k2 e2, PS)
target mRNA inhibition ([2]; HepG2, 5 µM): 43%

TGCTTTTTCATGGACCA (sugars e3 k2 d7 k2 e3, PS)
target mRNA inhibition ([2]; HepG2, 3 µM): 51%

CATCTGTGATTTAAGTC (sugars e2 k2 d8 k2 e3, PS)
target mRNA inhibition ([2]; HepG2, 5 µM): 42%

GGATTCTTTTAATAGCC (sugars e2 k2 d8 k2 e3, PS)
target mRNA inhibition ([2]; HepG2, 5 µM): 14%

GCGATCCCAATTACACC (sugars e2 k2 d8 k2 e3, PS)
target mRNA inhibition ([2]; HepG2, 4 µM): 31%

GTTTAATGTTTATCAGG (sugars e2 k2 d8 k2 e3, PS)
target mRNA inhibition ([2]; HepG2, 0.1875 µM): 55%
target mRNA inhibition ([2]; HepG2, 0.75 µM): 78%
target mRNA inhibition ([2]; HepG2, 3 µM): 87%
target mRNA inhibition ([2]; HepG2, 5 µM): 87%
target mRNA inhibition ([2]; HepG2, 12 µM): 93%

AAATCAGTTTCTCACTACAG (sugars e5 d10 e5, PS)
target mRNA inhibition ([2]; HepG2, 5 µM): 0%

AACAGATGAGTTAAGGG (sugars e2 k2 d9 k2 e2, PS)
target mRNA inhibition ([2]; HepG2, 0.1875 µM): 27%
target mRNA inhibition ([2]; HepG2, 0.75 µM): 49%
target mRNA inhibition ([2]; HepG2, 3 µM): 82%
target mRNA inhibition ([2]; HepG2, 4 µM): 86% and 82%
target mRNA inhibition ([2]; HepG2, 12 µM): 89% and 92%

AAGTCACACAATTACAC (sugars e2 k2 d9 k2 e2, PS)
target mRNA inhibition ([2]; HepG2, 5 µM): 37%

AAGTCTGGCAAAATACA (sugars e3 k2 d7 k2 e3, PS)
target mRNA inhibition ([2]; HepG2, 3 µM): 10%

ACATGCCTCTCTTCATC (sugars e3 k2 d7 k2 e3, PS)
target mRNA inhibition ([2]; HepG2, 3 µM): 0%

ATACAGGTCATTGAAAC (sugars e2 k2 d9 k2 e2, PS)
target mRNA inhibition ([2]; HepG2, 5 µM): 22%

CTCTTCATCCTTTGGCC (sugars e3 k2 d7 k2 e3, PS)
target mRNA inhibition ([2]; HepG2, 3 µM): 26%

AAACTATACAAATCTTC (sugars e2 k2 d8 k2 e3, PS)
target mRNA inhibition ([2]; HepG2, 5 µM): 55%

CTCATAATAAGTGCCAT (sugars e2 k2 d9 k2 e2, PS)
target mRNA inhibition ([2]; HepG2, 5 µM): 44%

TTCTACAGCTAGCAGGATAA (sugars e5 d10 e5, PS)
target mRNA inhibition ([2]; HepG2, 2 µM): 50%
